The record followed here is US20110002855A1 (NEUROGEN CORPORATION, priority 2007, published 2011).

T1 sequence (Q9Y5N1 with tags, fused parts or gaps): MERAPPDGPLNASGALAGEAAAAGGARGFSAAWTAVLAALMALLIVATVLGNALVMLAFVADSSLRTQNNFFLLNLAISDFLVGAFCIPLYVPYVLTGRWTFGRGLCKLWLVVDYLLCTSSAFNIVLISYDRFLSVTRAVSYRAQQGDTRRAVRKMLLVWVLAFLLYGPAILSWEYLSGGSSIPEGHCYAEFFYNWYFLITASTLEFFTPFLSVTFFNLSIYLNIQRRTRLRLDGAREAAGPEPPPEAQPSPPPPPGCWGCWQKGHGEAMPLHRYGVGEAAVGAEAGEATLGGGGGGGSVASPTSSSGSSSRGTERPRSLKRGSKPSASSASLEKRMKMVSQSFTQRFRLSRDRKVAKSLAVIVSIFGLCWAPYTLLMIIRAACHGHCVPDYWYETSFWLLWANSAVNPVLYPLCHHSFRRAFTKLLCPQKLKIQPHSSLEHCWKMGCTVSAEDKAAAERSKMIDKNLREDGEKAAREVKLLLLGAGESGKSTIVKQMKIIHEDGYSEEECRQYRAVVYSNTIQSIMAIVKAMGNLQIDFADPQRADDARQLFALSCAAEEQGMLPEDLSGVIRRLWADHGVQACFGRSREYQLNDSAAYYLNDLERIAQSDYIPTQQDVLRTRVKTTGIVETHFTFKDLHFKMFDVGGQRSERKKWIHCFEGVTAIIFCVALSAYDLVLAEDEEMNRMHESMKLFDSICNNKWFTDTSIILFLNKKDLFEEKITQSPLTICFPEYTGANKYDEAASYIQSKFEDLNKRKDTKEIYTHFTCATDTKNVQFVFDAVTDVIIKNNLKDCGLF

This assay addresses T1, chimeric human H3 receptor (Homo sapiens, UniProt Q9Y5N1).
T1 construct: made in house; host or cells: Sf9 insect cells (baculovirus); P2 membrane preparation
Description: Chimeric human H3 receptor GTP binding assay (Example 7). The note with it: agonist (1 μM histamine)-stimulated GTP-gamma35S binding, P2 membranes of Sf9 cells; Ki from IC50 by Cheng-Prusoff. The format is biochemical. An excerpt: This Example illustrates a representative assay for evaluating agonist-stimulated GTP-gamma^35S binding (“GTP binding”) activity. […] This agonist-stimulated GTP binding activity can also be used to detect partial agonism mediated by antagonist compounds. A compound analyzed in this assay is referred to herein as a “test compound.”
Four independent baculoviral stocks (one directing the expression of the chimeric human H3 receptor and three directing the expression of each of the three subunits of a heterotrimeric G-protein) are used to infect a culture of Sf9 cells as described above. P2 membranes are prepared as described above, and agonist-stimulated GTP binding on the P2 membranes is assessed using histamine (Sigma Chemical Co., St. Louis, Mo.) as agonist in order to ascertain that the receptor/G-protein-alpha-beta-gamma combination(s) yield a functional response as measured by GTP binding. P2 membranes are resuspended by Dounce homogenization (tight pestle) in GTP binding assay buffer (50 mM Tris pH 7.4, 120 mM NaCl, 5 mM MgCl2, 2 mM EGTA, 1 mg/ml BSA, 0.2 mg/ml bacitracin, 0.02 mg/ml aprotinin, 0.01 mg/ml saponin, 10 μM GDP) and added to assay tubes at a concentration of 35 μg protein/reaction tube. After adding increasing doses of histamine at concentrations ranging from 10^−12 M to 10^−5 M, reactions are initiated by the addition of 125 pM GTP-gamma^35S (PERKIN ELMER; Boston, Mass.) with a final assay volume of 0.20 ml. In competition experiments, non-radiolabeled test compounds are added to separate reactions at concentrations ranging from 10^−10 M to 10^−6M along with 1 μM histamine to yield a final volume of 0.20 ml.
Neutral antagonists are antagonists that are substantially free of inherent agonist activity, and include those test compounds that reduce the histamine-stimulated GTP binding activity towards, but not below, baseline levels. In contrast, in the absence of added histamine, inverse agonists reduce the GTP binding activity of the receptor-containing membranes below baseline.
After a 60-min incubation at room temperature, reactions are terminated by vacuum filtration over WHATMAN GF/C filters (pre-soaked in wash buffer, 0.1% BSA) followed by washing with ice-cold wash buffer (50 mM Tris pH 7.4, 120 mM NaCl). The amount of receptor-bound (and thereby membrane-bound) GTE-gamma^35S is determined by measuring the filter-bound radioactivity, preferably by liquid scintillation spectrometry of the washed filters. Non-specific binding is determined in parallel assays including 10 μM unlabeled GTP-gammaS and typically represents less than 5 percent of total binding. Data is expressed as percent above basal (baseline). The results of GTP binding experiments are analyzed using SIGMAPLOT software (SPSS Inc., Chicago, Ill.). IC50 values are calculated by non-linear regression analysis of dose-response curves using Kaleidograph (Synergy Software, Reading, Pa.).
Alternatively the data is analyzed as follows. First, the average bound radioactivity from negative control wells (no agonist) is subtracted from the bound radioactivity detected for each of the other experimental wells. Second, average bound radioactivity is calculated for the positive control wells (agonist wells). Then, percent inhibition for each compound tested is calculated using the equation:
Calculated IC50 values are converted to Ki values by the Cheng-Prusoff correction (Cheng and Prusoff (1973) Biochem. Pharmacol. 22(23):3099-3108). Accordingly, the following equation: Ki=IC50/(1+[L]/EC50) is used, where [L] is the histamine concentration in the GTP binding assay, and EC50 is the concentration of histamine producing a 50% response, as determined by a dose-response analysis using concentrations of histamine ranging from 10^−10 M to 10^−6M. […]
(GTPγS resists hydrolysis and so accumulates on activated G proteins.)
The term Ki denotes a measure of affinity in units of concentration, obtained from inhibition or displacement. Turning to `COc1ccc2[nH]c3c(c2c1)CCN(CC(=O)N1CCN(C2CCC2)CC1)C3` [Compound 18, 2-[2-(4-Cyclobutylpiperazin-1-yl)-2-oxoethyl]-6-methoxy-2,3,4,9-tetrahydro-1H-beta-carboline], the Ki is below 1000 nM. For `COc1ccc2c(c1)c1c(n2C)CN(CC(=O)N2CCN(C3CCC3)CC2)CC1` [Compound 19, 2-[2-(4-Cyclobutylpiperazin-1-yl)-2-oxoethyl]-6-methoxy-9-methyl-2,3,4,9-tetrahydro-1H-beta-carboline], the inhibition constant Ki is below 1000 nM. As to `Cc1ccc2[nH]c3c(c2c1)CCN(CC(=O)N1CCN(C2CCC2)CC1)C3` [Compound 20, 2-[2-(4-Cyclobutylpiperazin-1-yl)-2-oxoethyl]-6-methyl-2,3,4,9-tetrahydro-1H-beta-carboline], the Ki is below 1000 nM. As for `O=C(CN1CCc2c([nH]c3ccc(F)cc23)C1)N1CCN(C2CCC2)CC1` [Compound 21, 2-[2-(4-Cyclobutylpiperazin-1-yl)-2-oxoethyl]-6-fluoro-2,3,4,9-tetrahydro-1H-beta-carboline], the figure is below 1000 nM; as for `O=C(CN1CCc2c([nH]c3ccc(Br)cc23)C1)N1CCN(C2CCC2)CC1` [Compound 22, 6-Bromo-2-[2-(4-cyclobutylpiperazin-1-yl)-2-oxoethyl]-2,3,4,9-tetrahydro-1H-beta-carboline], below 1000 nM. As for `Cn1c2c(c3cc(F)ccc31)CCN(CC(=O)N1CCN(C3CCC3)CC1)C2` [Compound 23, 2-[2-(4-Cyclobutylpiperazin-1-yl)-2-oxoethyl]-6-fluoro-9-methyl-2,3,4,9-tetrahydro-1H-beta-carboline], the figure is below 1000 nM; as for `O=C(CN1CCc2c([nH]c3cc(F)ccc23)C1)N1CCN(C2CCC2)CC1` [Compound 24, 2-[2-(4-Cyclobutylpiperazin-1-yl)-2-oxoethyl]-7-fluoro-2,3,4,9-tetrahydro-1H-beta-carboline], below 1000 nM; as for `O=C(CN1CCc2c([nH]c3c(F)cccc23)C1)N1CCN(C2CCC2)CC1` [Compound 25, 2-[2-(4-Cyclobutylpiperazin-1-yl)-2-oxoethyl]-8-fluoro-2,3,4,9-tetrahydro-1H-beta-carboline], below 1000 nM. As for `O=C(CN1CCc2c([nH]c3cccc(F)c23)C1)N1CCN(C2CCC2)CC1` [Compound 26, 2-[2-(4-Cyclobutylpiperazin-1-yl)-2-oxoethyl]-5-fluoro-2,3,4,9-tetrahydro-1H-beta-carboline], the figure is below 1000 nM. On to `O=C(CN1CCc2c([nH]c3cc(-c4cncnc4)ccc23)C1)N1CCN(C2CCC2)CC1` [Compound 27, 2-[2-(4-Cyclobutylpiperazin-1-yl)-2-oxoethyl]-7-pyrimidin-5-yl-2,3,4,9-tetrahydro-1H-beta-carboline], for which the Ki is below 1000 nM. As for `CCn1c2c(c3ccccc31)CCN(CC(=O)N1CCN(C3CCC3)CC1)C2` [Compound 28, 2-[2-(4-Cyclobutylpiperazin-1-yl)-2-oxoethyl]-9-ethyl-2,3,4,9-tetrahydro-1H-beta-carboline], the figure is below 1000 nM; as for `CCCn1c2c(c3ccccc31)CCN(CC(=O)N1CCN(C3CCC3)CC1)C2` [Compound 29, 2-[2-(4-Cyclobutylpiperazin-1-yl)-2-oxoethyl]-9-propyl-2,3,4,9-tetrahydro-1H-beta-carboline], below 1000 nM; as for `CC(C)n1c2c(c3ccccc31)CCN(CC(=O)N1CCN(C3CCC3)CC1)C2` [Compound 30, 2-[2-(4-Cyclobutylpiperazin-1-yl)-2-oxoethyl]-9-isopropyl-2,3,4,9-tetrahydro-1H-beta-carboline], below 1000 nM. As for `O=C(CN1CCc2c(n(CC(F)(F)F)c3ccccc23)C1)N1CCN(C2CCC2)CC1` [Compound 31, 2-[2-(4-Cyclobutylpiperazin-1-yl)-2-oxoethyl]-9-(2,2,2-trifluoroethyl)-2,3,4,9-tetrahydro-1H-beta-carboline], the figure is below 1000 nM; as for `O=C(CN1CCc2c([nH]c3ccccc23)C1)N1CCN2CCCCC2C1` (stereo not drawn) [Compound 32, 2-[2-(Octahydro-2H-pyrido[1,2-a]pyrazin-2-yl)-2-oxoethyl]-2,3,4,9-tetrahydro-1H-beta-carboline], below 1000 nM; as for `CC1CCCC2CN(C(=O)CN3CCc4c([nH]c5ccccc45)C3)CCN12` (stereo not drawn) [Compound 33, 2-[2-(6-Methyloctahydro-2H-pyrido[1,2-a]pyrazin-2-yl)-2-oxoethyl]-2,3,4,9-tetrahydro-1571H-beta-carboline], below 1000 nM.
